From patent US10729710B2, “Catecholamine prodrugs for use in the treatment of Parkinson's disease” (H. Lundbeck A/S, priority 2017, dated 2020)
Where a name gives a salt, the structure may show the parent alone.

Legend:
hepatocytes from human = assay: Conversion to compound (I) in human hepatocytes; assay type: in vitro ADME; conditions: 1 μg/mL, 37° C., 0.25-60 minutes, FIG. 7b
Method: The cell concentration at incubation was 1×10^6 viable cells/mL. The incubations were performed in glass tubes at 37° C. with a total incubation volume of 3.5 mL and with duplicate incubations for each test item. The 3.5 mL of hepatocyte suspension was equilibrated for 10 minutes in a water bath set to 37° C. where after the incubations were initiated by adding 3.5 μL of a stock solution of the test item in DMSO (Dimethyl sulfoxide) and gently inverting the tubes. The final solvent concentration in the incubations was 0.1% DMSO. Samples of 600 μL were withdrawn from the incubations at the pre-determined time points of 0.25, 5, 15, 30 and 60 minutes after ensuring homogeneity of hepatocyte suspensions. The withdrawn volume was added to 1 mL Nunc cryo tubes on wet ice containing 60 μL of ice cold ascorbic acid (100 mg/mL) and 30 μL of ice cold 100 mM saccharic acid 1.4-lactone in 0.5 M citric acid. The tubes were mixed and 35 μL of a solution of ice cold 20% formic acid was added. The tubes were mixed thoroughly and stored at −80° C. awaiting analysis. Analysis method and Instrumentation used for analysis of (I) from dosing (Id-ia), (Id-ib), (Id-iia) and (Id-iib), were the one described in Examples 4 and 5 below in the section “Instrumentation used for analysis of compound (I) from dosing of compounds (Ic), (Id-ia), (Id-ib), (Id-iia), (Id-iib), (Id-iab) and (Id-iiab).”
Analysis method and Instrumentation used for analysis of (I) from dosing (Id-iab) and (Id-iiab) consisted of mixing equal aliquots of the samples and precipitation solution (acetonitrile (MeCN) with 10% methanol (MeOH) and 1% formic acid), followed by centrifugation at 4° C. at 16000 g for 10 minutes. Supernatants were collected and analysed by LC-MS/MS. Mass spectrometer: Waters Acquity—Waters Xevo TQ-MS. Analytical column: Acquity UPLC HSS T3, 100×2.1 mm, 1.8 μm. Mobile phase A: 0.2% formic acid in water. Mobile phase B: 0.2% formic acid in acetonitrile. Gradient run from 95/5% to 60/40 in 5 min. Flow rate 0.3 mL/min. MRM monitoring of (I) in the study samples and in the analytical standards.

human 5-HT2B receptor = human 5-HT2B receptor (Homo sapiens (Human), UniProt P41595); assay: 5-HT2B radioligand binding assay ([125I](±)DOI); conditions: 0.2 nM [125I](±)DOI, read-out: 5-HT2B binding affinity (% inhibition of control, specific binding at concentration indicated)
Sequence of human 5-HT2B receptor (P41595 whole entry): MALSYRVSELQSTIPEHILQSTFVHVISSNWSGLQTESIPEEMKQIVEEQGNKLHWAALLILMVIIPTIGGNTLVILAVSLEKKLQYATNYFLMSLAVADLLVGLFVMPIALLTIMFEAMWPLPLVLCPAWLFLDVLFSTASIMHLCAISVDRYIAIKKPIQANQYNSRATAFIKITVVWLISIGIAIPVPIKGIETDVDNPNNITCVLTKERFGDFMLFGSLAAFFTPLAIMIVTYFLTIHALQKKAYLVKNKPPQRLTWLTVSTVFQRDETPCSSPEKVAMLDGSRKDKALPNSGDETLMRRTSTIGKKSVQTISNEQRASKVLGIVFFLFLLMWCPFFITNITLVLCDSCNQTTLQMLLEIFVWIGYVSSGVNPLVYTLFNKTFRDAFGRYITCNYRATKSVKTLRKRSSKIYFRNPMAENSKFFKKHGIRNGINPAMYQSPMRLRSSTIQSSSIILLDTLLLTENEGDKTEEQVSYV
Method: Membrane homogenates prepared from CHO cells expressing the human 5HT2B receptor were incubated for 60 min at room temperature with 0.2 nM [125I](±)DOI (1-(4-iodo-2, 5-dimethoxyphenyl)propan-2-amine) in the absence or presence of the test compound in a buffer containing 50 mM Tris-HCl (pH 7.4), 5 mM MgCl2, 10 μM pargyline and 0.1% ascorbic acid. Nonspecific binding is determined in the presence of 1 μM (±)DOI. Following incubation, the samples were filtered rapidly under vacuum through glass fiber filters (GF/B, Packard) presoaked with 0.3% polyethyleneimine (PEI) and rinsed several times with ice-cold 50 mM Tris-HCl using a 96-sample cell harvester (Unifilter, Packard). The filters were dried and counted for radioactivity in a scintillation counter (Topcount, Packard) using a scintillation cocktail (Microscint 0, Packard). The results are expressed as a percent inhibition of the control radioligand specific binding. The standard reference compound was (±)DOI, which was tested in each experiment at several concentrations to obtain a competition curve from which its IC50 is calculated.

human D2 receptor = human D2 receptor (Homo sapiens (Human), UniProt P14416); assay: Dopamine D2 receptor agonism, calcium mobilization assay; assay type: cell-based; conditions: for Emax: normalized to 1 μM dopamine = 100%
Sequence of human D2 receptor (P14416 whole entry): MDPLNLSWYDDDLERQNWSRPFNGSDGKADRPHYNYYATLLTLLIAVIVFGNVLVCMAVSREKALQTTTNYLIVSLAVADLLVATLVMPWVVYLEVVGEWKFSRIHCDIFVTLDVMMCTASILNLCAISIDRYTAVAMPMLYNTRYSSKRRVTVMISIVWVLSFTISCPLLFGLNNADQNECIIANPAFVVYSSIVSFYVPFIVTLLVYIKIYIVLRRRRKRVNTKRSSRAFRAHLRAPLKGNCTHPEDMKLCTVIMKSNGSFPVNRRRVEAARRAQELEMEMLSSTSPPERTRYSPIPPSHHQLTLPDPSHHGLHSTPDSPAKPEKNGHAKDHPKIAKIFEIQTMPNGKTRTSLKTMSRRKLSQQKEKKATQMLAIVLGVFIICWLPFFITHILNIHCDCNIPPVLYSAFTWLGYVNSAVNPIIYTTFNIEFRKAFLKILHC
Method: Dopamine D2 receptor agonism was measured using a calcium mobilization assay protocol developed by HD Biosciences (China). Briefly, HEK293/G15 cells expressing human D2 receptor were plated at a density of 15000 cells/well in clear-bottomed, Matrigel-coated 384-well plates and grown for 24 hrs at 37° C. in the presence of 5% CO2. The cells were incubated with calcium-sensitive fluorescent dye, Fluo8, for 60-90 minutes at 37° C. in the dark. Test compounds were prepared at 3-fold concentrated solution in 1×HBSS buffer with Ca^2+ and Mg^2+. Calcium Flux signal was immediately recorded after compounds were added from compound plate to cell plate at FLIPR (Molecular Devices). The fluorescence data were normalized to yield responses for no stimulation (buffer) and full stimulation (1 μM of dopamine) of 0% and 100% stimulation, respectively. Test compound potency (EC50) was estimated by nonlinear regression using the sigmoidal dose-response (variable slope) using Xlfit 4 (IDBS, Guildford, Surrey, UK, model 205). y=(A+((B−A)/(1+((C/x)^D)))) where y is the normalized ratio measurement for a given concentration of test compound, x is the concentration of test compound, A is the estimated efficacy at infinite compound dilution, and B is the maximal efficacy. C is the EC50 value and D is the Hill slope coefficient. EC50 estimates were obtained from independent experiment and the logarithmic average was calculated.

male CD rats = assay: Rat locomotor activity (hyperactivity) assay, open field; assay type: in vivo
Method: In total, 206 male CD rats (Charles River, Germany) weighing 200-250 grams (165-190 grams upon arrival) were used in the study. Animals were housed at a standard temperature (22±1° C.) and in a light-controlled environment (lights on from 7 am to […]) with ad libitum access to food and water. The experiment described below was performed in accordance with the standard operating procedures of Charles River Discovery Research Services Finland Ltd. and in accordance with the national Animal Experiment Board of Finland (Eläinkoelautakunta, ELLA) authority on animal testing.
The test device is a square Plexiglass-arena (measuring 40×40×40 cm), in which the movement paths of the rats are recorded by an activity monitor (Med. Associates Inc.). Before the test period is initiated, rats are habituated to their test cage for 60 minutes. Upon completion of habituation, animals were treated with either compound or vehicle and placed back into the open field apparatus. The main test parameter measured is ambulatory distance (recorded in 5 minute segments). Overall time of measurement after receiving initial treatment was 360 minutes. Total follow up period in the study was 420 min, including 60 min of habituation.

Row | Structure (SMILES) | conversion to compound (I) in human hepatocytes (hepatocytes from human) | inhibition at 10 µM (human 5-HT2B receptor) [%] | Emax (human D2 receptor) [%] | relationship between behavioral effect and plasma concentrations (male CD rats; (Id-ia) 100 μg/kg p.o. (FIG. 5), apomorphine 3 mg/kg s.c. (FIG. 6)) | start of locomotor activity effect post-administration (male CD rats; (Id-ia) 10 to 300 μg/kg p.o., apomorphine 3 mg/kg s.c., pramipexole 0.3 mg/kg s.c.) [h] | total distance travelled vs vehicle (male CD rats; FIG. 4, (Id-ia) p.o., apomorphine 3 mg/kg s.c., pramipexole 0.3 mg/kg s.c.) | time until locomotor effect is gone (male CD rats; apomorphine: post administration, pramipexole: after appearance of effect, (Id-ia): recording ended at 415-minute time point) | EC50 (human D2 receptor; HEK293/G15 cells expressing human D2 receptor, calcium flux) [µM]
1 | CCCN1CCC[C@@H]2Cc3c(ccc(O)c3O[C@@H]3O[C@H](C(=O)O)[C@@H](O)[C@H](O)[C@H]3O)C[C@H]21 [(Id-ia), (2S,3S,4S,5R,6S)-3,4,5-trihydroxy-6-(((4aR,10aR)-7-hydroxy-1-propyl-1,2,3,4,4a,5,10,10a-octahydrobenzo[g]quinolin-6-yl)oxy)tetrahydro-2H-pyran-2-carboxylic acid] | time dependent conversion to compound (I) | -25 | 92 | correlate with the plasma concentrations of compound (I) | ~2 | significantly increased activity | lasting until the end of recording | 
2 | CCCN1CCC[C@@H]2Cc3c(ccc(O)c3OS(=O)(=O)O)C[C@H]21 [(Id-iia), (4aR,10aR)-7-hydroxy-1-propyl-1,2,3,4,4a,5,10,10a-octahydrobenzo[g]quinolin-6-yl hydrogen sulfate] | time dependent conversion to compound (I) | 6 | 48 |  |  |  |  | > 30
